From US11077114B2, “Stabilized formulations of CNS compounds” (Supernus Pharmaceuticals, Inc., priority 2010, dated 2021)
Counter-ions that a name gives are not always drawn.

Assays:
[1] = Molindone hydrochloride solubility profile at ambient conditions; type: physicochemical; details: acidic to slightly acidic media versus neutral to slightly alkaline pH; FIG. 1
Description: As a weakly basic drug, molindone is typically included into formulations in the form of a salt, such as chloride, sulfate, phosphate, monohydrogenphosphate, dihydrogenphosphate, bromide, iodide, acetate, propionate, decanoate, caprylate, formate, oxalate, malonate, succinate, fumarate, maleate, citrate, lactate, tartrate, methanesulfonate, mandelate, and the like.

[2] = pH dependent solution state stability in phosphate buffer at 37° C.; type: physicochemical; details: 24 hour exposure
[3] = cited from earlier work

With `CCc1c(C)[nH]c2c1C(=O)C(CN1CCOCC1)CC2` (stereo not drawn) [Molindone, 3-Ethyl-6,7-dihydro-2-methyl-5-(morpholinomethyl)indol-4(5H)-one] the “solubility versus pH (in words)” value [1] was “greater solubility”, the loss ([2]; pH 6.0 phosphate buffer) was 3% and the loss ([2]; pH 6.8 phosphate buffer) was 6.4%. For the same compound, the loss ([2]; pH 7.5 phosphate buffer) was 7.5%.
In the case of `CCc1c(C)[nH]c2c1C(=O)C(CN1CCOCC1)CC2` (stereo not drawn) [Molindone hydrochloride], the tmax ([3]; following oral administration) is listed as 1 to 1.5 h and the plasma elimination half-life ([3]; oral dose) is listed as “about 2 hours”.
